The source of these data is patent US3997662A, “Antibiotics and their preparation” (Rhone-Poulenc S.A., priority 1962, dated 1976).

Structures can show the parent of a compound that is named as a salt. Where two headings read alike, the source gives them in different places.

The nature of one data set: Solubility. Type of data set: physicochemical.
The next data set concerns Klebsiella pneumoniae. As to the kind of experiment: Activity by turbidimetric estimation against a 9865 RP control. It is filed as cell-based. To be noted: purified product; units per mg, Klebsiella pneumoniae growth inhibition. From the text: The following non-limitative Examples illustrate the invention. […] This activity is expressed in units (u) per mg. for solid products and in units per cc. for solutions. (The unit is defined as the smallest quantity of product which, dissolved in 1 cc. of an appropriate medium, inhibits the growth of Klebsiella pneumoniae under the conditions in question.)

The test system of a further data set is numerous bacteria. The data set can be described thus: Bacteriostatic activity (general statement). Type of data set: cell-based. To be noted: including antibiotic-resistant bacteria. From the text: For each organism, the lowest concentration of substance has been determined which, under the defined conditions, prevents all visible development in an appropriate nutritive broth. The results of various determinations are shown in Table VI, wherein the minimal bacteriostatic concentrations are expressed as micrograms of substance per cubic centimeter of experimental medium.

Data set [1] relates to transplantable tumours in the mouse. As to the kind of experiment: Anti-cancer activity (general statement).

In the case of `COc1cccc2c1C(=O)c1c(O)c3c(c(O)c1C2=O)C[C@@](O)(C(C)=O)C[C@@H]3O[C@H]1C[C@H](N)[C@H](O)[C@H](C)O1` [13057 RP hydrochloride], in the data set “Solubility” (chloroform), the solubility in chloroform entry is on record as “slightly soluble”. For the same molecule, the solubility in water entry in the data set “Solubility” was “soluble”.
In the case of `COc1cccc2c1C(=O)c1c(O)c3c(c(O)c1C2=O)C[C@@](O)(C(C)=O)C[C@@H]3O[C@H]1C[C@H](N)[C@H](O)[C@H](C)O1` [13057 RP], the activity in the data set on Klebsiella pneumoniae is listed as 160 μ/mg. In the data set with numerous bacteria, the bacteriostatic activity entry is listed as “exerted against numerous bacteria”. Moreover, the solubility in benzene result in “Solubility” (benzene) is “particularly insoluble”. Further, in “Solubility” (diethyl ether), the “solubility in diethyl ether” value is given as “particularly insoluble”. Moreover, the solubility in ketones entry in the data set “Solubility” (ketones) is “very slightly soluble”. For the same molecule, in the data set “Solubility”, the solubility in water result is “very slightly soluble”. The anti-cancer activity entry is recorded as “most interesting of the new antibiotics” in data set [1] and “very pronounced” in data set [1] (listed as 13057 R.P.).
